Results published in patent publication EP0037224A1, “Rare earth metal carboxylates, their use as antimicrobial agents, and medicinal, cosmetic and cleansing compositions containing them” (THE PROCTER & GAMBLE COMPANY, priority 1980, dated 1981).

Columns and labels:
E. coli = test: Minimum Bactericidal Concentration test; format: cell-based; conditions: 10-minute contact with the test agent at 37°C; at least a 3 log unit reduction in viable cell count
S. aureus = test: Minimum Bactericidal Concentration test; format: cell-based; conditions: 10-minute contact with the test agent at 37°C; at least a 3 log unit reduction in viable cell count
Staphylococcus = conditions: cited from earlier work
molds = conditions: cited from earlier work

## O.O.O.O.O.O.O.O.O=S(=O)([O-])[O-].O=S(=O)([O-])[O-].O=S(=O)([O-])[O-].[La+3].[La+3] [La2(SO4)3.8H2O]
E. coli
  Minimum Bactericidal Concentration E. coli: >7100 ppm
S. aureus
  Minimum Bactericidal Concentration S. aureus: >7100 ppm

## O.O.O.O.O.O.O=[N+]([O-])[O-].O=[N+]([O-])[O-].O=[N+]([O-])[O-].[La+3] [La(NO3)3.6H2O]
E. coli
  Minimum Bactericidal Concentration E. coli: >4300 ppm
S. aureus
  Minimum Bactericidal Concentration S. aureus: >4300 ppm

## O.O.O.O.O.O.[Cl-].[Cl-].[Cl-].[La+3] [LaCl3.6H2O]
E. coli
  Minimum Bactericidal Concentration E. coli: >3500 ppm
S. aureus
  Minimum Bactericidal Concentration S. aureus: >3500 ppm

## O=[N+]([O-])[O-].O=[N+]([O-])[O-].O=[N+]([O-])[O-].[Ce+3] [cerium nitrate]
Staphylococcus
  concentration that inhibits Staphylococcus: 1000 ppm
molds
  concentration that inhibits molds: 1000 ppm
